Data as given in US8299048B2, “Hexahydrocyclopentyl[f]indazole sulfonamides and derivatives thereof as selective glucocorticoid receptor modulators” (Merck Sharp & Dohme Corp., priority 2008, dated 2012).

Legend:
[1] = target: T1, human GR (Homo sapiens, UniProt P04150); test: Trans-Activation Modulation of Glucocorticoid Receptor (GRAMMER), MMTV-LUC reporter, agonist mode; assay type: cell-based; design: endogenous in cells; conditions: for Emax: A549, A549 cells, maximum activity, read-out: Transactivation A549 Cells GRAMMER Emax; for EC50: A549 cells, inflection point, read-out: Transactivation A549 Cells GRAMMER IP
T1 sequence (P04150 1-777): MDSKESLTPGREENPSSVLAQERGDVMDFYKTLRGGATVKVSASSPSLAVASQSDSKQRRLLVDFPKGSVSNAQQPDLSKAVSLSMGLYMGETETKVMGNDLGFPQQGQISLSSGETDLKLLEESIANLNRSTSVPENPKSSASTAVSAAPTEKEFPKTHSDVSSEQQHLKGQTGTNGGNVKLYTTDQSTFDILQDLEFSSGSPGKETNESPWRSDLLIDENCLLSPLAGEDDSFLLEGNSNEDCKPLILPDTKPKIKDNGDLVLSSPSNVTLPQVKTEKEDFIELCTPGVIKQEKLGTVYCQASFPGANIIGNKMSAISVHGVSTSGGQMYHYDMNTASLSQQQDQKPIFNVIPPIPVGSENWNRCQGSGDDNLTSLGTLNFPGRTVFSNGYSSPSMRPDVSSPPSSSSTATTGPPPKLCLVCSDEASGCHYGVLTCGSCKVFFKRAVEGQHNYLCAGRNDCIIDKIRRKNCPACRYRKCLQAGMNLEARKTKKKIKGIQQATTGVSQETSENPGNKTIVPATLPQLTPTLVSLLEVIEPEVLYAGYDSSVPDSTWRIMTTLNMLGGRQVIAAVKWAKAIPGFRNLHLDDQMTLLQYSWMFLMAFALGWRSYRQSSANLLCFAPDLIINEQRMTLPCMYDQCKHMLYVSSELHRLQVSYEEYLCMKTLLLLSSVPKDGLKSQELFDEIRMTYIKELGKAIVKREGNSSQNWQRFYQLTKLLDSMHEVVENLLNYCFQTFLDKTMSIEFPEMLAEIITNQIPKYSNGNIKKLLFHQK
Description: This assay assesses the ability of test compounds to control transcription from the MMTV-LUC reporter gene in lung adenocarcinoma A549 cells or MDA-MB-453 cells, a human breast cancer cell line that naturally expresses the human GR. The assay measures induction of a modified MMTV LTR/promoter linked to the LUC reporter gene.
The routine transient assay consists of plating 7,000-25,000 cells/well of a white, clear-bottom 96-well plate. Alternatively, 384-well plates can be used at a cell concentration of 10,000/well. The media that the cells are plated in is “exponential growth medium” which consists of phenol red-free RPMI1640 containing 10% FBS, 4 mM L-glutamine, 20 mM HEPES, 10 ug/mL human insulin, and 20 ug/mL gentamicin. Incubator conditions are 37° C. and 5% CO2. The transfection is done in batch mode. The cells are trypsinized and counted to the right cell number in the proper amount of fresh media. It is then gently mixed with the FuGene6/DNA mix and plated onto the 96 or 384-well plate, all the wells receive 100 uL or 40 uL, respectively, of medium+lipid/DNA complex then incubated 37° C. overnight. The transfection cocktail consists of serum-free OptiMEM, FuGene6 reagent and DNA. The manufacturer's (Roche Biochemical) protocol for cocktail setup is as follows: The lipid to DNA ratio is approximately 2.5:1 and the incubation time is 20 min at room temperature. Sixteen to 24 hours after transfection, the cells are treated with dexamethasone to a final concentration of 10 nM as well as the compound of interest, such that final DMSO (vehicle) concentration is equal to or less than 1%. Each plate also contains samples that are treated with 10 nM dexamethasone alone, which is used as the 100% activity control. The cells are exposed to the compounds for 24 hours. After 24 hours, the cells are lysed by a Promega cell culture lysis buffer for approximately 30 min and then the luciferase activity in the extracts is assayed in the 96-well format luminometer. In 384-well format, Steady-Glo (Promega) or Steady-Lite (PerkinElmer) can be used by adding an equal volume of reagent to the media present in each well. Activity induced by 10 nM dexamethasone alone is set at 100% activity. Antagonist activity is calculated by determining the decrease in dexamethasone-induced activity in response to compound treatment relative to samples that were treated with dexamethasone alone. […] This transactivation assay can be performed in an agonist and antagonist mode to identify these different activities.

[2] = target: T1, human GR; test: Transrepression Assay (GITAR), TNFα-β-lactamase reporter in U937 cells; assay type: cell-based; design: U937 cells contain an endogenous glucocorticoid receptor (GR); endogenous in cells; host or cells: U937 cells stably transfected with the TNF-alpha promoter/beta-lactamase reporter; conditions: for GITAR > GRAMM % SEP: GITAR Emax minus GRAMMER Emax; for EC50: U937 cells, inflection point, read-out: Transrepression U937 Cells GITAR IP
Description: This assay assesses the ability of test compounds to control transcription from the TNFα-β-lactamase reporter gene in U937 cells, a human myelomonocytic leukemia cell line that naturally expresses the human GR. The assay measures compound dependent-repression of the TNFa promoter linked to a reporter gene.
The human U937 cells that had been stablely transfected with the TNF-α promoter driving β-lactamase are used for this assay. U937 cells contain an endogenous glucocorticoid receptor (GR). Cells are maintained in RPMI 1640 Growth medium (Gibco Cat#11875-093) containing 25 mM HEPES, 10% FBS, 2 mM L-Glutamine, 1 mM Sodium pyruvate, 25 μg/ml Gentamicin (Gibco Cat#15710-064), 1:1000 2-Mercaptoethanol (Gibco Cat#21985-023) and 0.8 mg/ml G418 (Gibco Cat#10131-027). The density of the cells in the flask needs to be about 1×10^6−3×10^6/ml at the time of harvest. Usually, the cells are split to 1.2˜1.4×10^5/ml (1:10) 3 days prior to the assay. 50,000 cells/well are plated in 96 well black-walled plates the day of assay. Test compounds are added 10 μL/well, and cells are incubated at 37° C. for 30˜45 min. For assaying compounds, first dilute 1:10 in DMSO to make 1 mM, then further dilute 1:100 in medium to make 10× stock prior to adding to the cells. Add 50 ng/mlPMA (Sigma, cat# P8139) 10 μL/well to a final concentration 5 ng/ml, and 1 μg/ml LPS (Sigma, cat# L4130) 10 μL/well to a final concentration 100 ng/ml. Incubate cells at 37° C. overnight for ˜18 hr. PMA is stored frozen as 100 μg/ml stock in DMSO. Dilute 1:10 in DMSO for a working stock of 10 μg/ml and store at −20 C. For assaying, dilute the 10 μg/ml working stock 1:200 in medium to make a 10× solution (50 ng/ml). Store frozen LPS at 1 mg/ml in PBS, dilute 1:1000 in medium to make 10× (1 μg/ml) for the assay. Add 6× loading buffer (CCF2-AM) 20 μL/well, and incubate at room temperature for 70˜90 min. […] The activity repressed by 100 nM dexamethasone alone is set as 100% activity.

[3] = U-937, U937 cells, maximum activity, read-out: Transrepression U937 Cells GITAR Emax
[4] = U-937, activity repressed by 100 nM dexamethasone alone set as 100%, read-out: maximal activity in the transrepression (GITAR) assay

Compound | Emax [1] [%] | EC50 [1] [nM] | GITAR > GRAMM % SEP [2] [%] | EC50 [2] [nM] | Emax [2, 3] [%] | Emax [2, 4] [%]
C[C@]12Cc3cnn(-c4ccc(F)cc4)c3C=C1CC[C@@H]2CN(CC1CC1)S(=O)(=O)c1cc(C(F)(F)F)ccc1Cl [Example 5, 2-chloro-N-(cyclopropylmethyl)-N-{[(4αR,5S)-1-(4-fluorophenyl)-4α-methyl-1,4,4α,5,6,7-hexahydrocyclopenta[f]indazol-5-yl]methyl}-5-(trifluoromethyl)benzenesulfonamide] | 2.9 | 422 | 16.2 | 223 | 19.2 | > 5
Cc1nn(C)c(Cl)c1S(=O)(=O)N(CC1CC1)C[C@H]1CCC2=Cc3c(cnn3-c3ccc(F)cc3)C[C@@]21C [Example 7] | 36.3 | 351 | 19.7 | 389 | 56 | > 5
C[C@]12Cc3cnn(-c4ccc(F)cc4)c3C=C1CC[C@@H]2CN(CC1CC1)S(=O)(=O)c1ccc(-c2ccccc2)cc1 [Example 10, N-(cyclopropylmethyl)-N-{[(4αR,5S)-1-(4-fluorophenyl)-4α-methyl-1,4,4α,5,6,7-hexahydrocyclopenta[f]indazol-5-yl]methyl}biphenyl-4-sulfonamide] | 12.3 | 615 | 34.4 | 465 | 46.6 | > 5
Cc1noc(C)c1S(=O)(=O)N(CC1CC1)C[C@H]1CCC2=Cc3c(cnn3-c3ccc(F)cc3)C[C@@]21C [Example 11, N-(cyclopropylmethyl)-N-{[(4αR,5S)-1-(4-fluorophenyl)-4α-methyl-1,4,4α,5,6,7-hexahydrocyclopenta[f]indazol-5-yl]methyl}-3,5-dimethylisoxazole-4-sulfonamide] | 66 | 235 | 23.1 | 206 | 89.1 | > 5
CCCS(=O)(=O)N(CCOC)C[C@H]1CCC2=Cc3c(cnn3-c3ccc(F)cc3)C[C@@]21C [Example 95, N-{[(4αR,5S)-1-(4-fluorophenyl)-4α-methyl-1,4,4α,5,6,7-hexahydrocyclopenta[f]indazol-5-yl]methyl}-N-(2-methoxyethyl)propane-1-sulfonamide] | 70.4 | 559 | 2.7 | 464 | 73.1 | > 5
COCCN(C[C@H]1CCC2=Cc3c(cnn3-c3ccc(F)cc3)C[C@@]21C)S(C)(=O)=O [Example 96, N-{[(4αR,5S)-1-(4-fluorophenyl)-4α-methyl-1,4,4α,5,6,7-hexahydrocyclopenta[f]indazol-5-yl]methyl}-N-(2-methoxyethyl)methanesulfonamide] | 65.7 | 152 | 19.3 | 124 | 85 | > 5
COCCN(C[C@H]1CCC2=Cc3c(cnn3-c3ccc(F)cc3)C[C@@]21C)S(=O)(=O)CC(F)(F)F [Example 97, 2,2,2-trifluoro-N-{[(4αR,5S)-1-(4-fluorophenyl)-4α-methyl-1,4,4α,5,6,7-hexahydrocyclopenta[f]indazol-5-yl]methyl}-N-(2-methoxyethyl)ethanesulfonamide] | 83.8 | 48.9 | 2.2 | 49 | 85.9 | > 5

Second part, the compound after the results:

Emax [1] [%] | EC50 [1] [nM] | GITAR > GRAMM % SEP [2] [%] | EC50 [2] [nM] | Emax [2, 3] [%] | Emax [2, 4] [%] | Compound
13 | 402 | 36.0 | 1010 | 49 | > 5 | CC(=O)Nc1ccc(S(=O)(=O)N(CC2CC2)C[C@H]2CCC3=Cc4c(cnn4-c4ccc(F)cc4)C[C@@]32C)cc1 [Example 6, N-{4-[((cyclopropylmethyl){[(4αR,5S)-1-(4-fluorophenyl)-4α-methyl-1,4,4α,5,6,7-hexahydrocyclopenta[f]indazol-5-yl]methyl}amino)sulfonyl]phenyl}acetamide]
4.9 | 37 | 12.4 | 424 | 17.4 | > 5 | CN1CCOc2cc(S(=O)(=O)N(CC3CC3)C[C@H]3CCC4=Cc5c(cnn5-c5ccc(F)cc5)C[C@@]43C)ccc21 [Example 8, N-(cyclopropylmethyl)-N-{[(4αR,5S)-1-(4-fluorophenyl)-4α-methyl-1,4,4α,5,6,7-hexahydrocyclopenta[f]indazol-5-yl]methyl}-4-methyl-3,4-dihydro-2H-1,4-benzoxazine-7-sulfonamide]
12.7 | 1130 | 15.4 | 959 | 28.1 | > 5 | CCCCCc1ccc(S(=O)(=O)N(CC2CC2)C[C@H]2CCC3=Cc4c(cnn4-c4ccc(F)cc4)C[C@@]32C)cc1 [Example 9, N-(cyclopropylmethyl)-N-{[(4αR,5S)-1-(4-fluorophenyl)-4α-methyl-1,4,4α,5,6,7-hexahydrocyclopenta[f]indazol-5-yl]methyl}-4-pentylbenzenesulfonamide]
